Laboratory results published in patent US20230131903A1, “PESTICIDALLY ACTIVE FUSED BICYCLIC HETEROAROMATIC COMPOUNDS” (SYNGENTA CROP PROTECTION AG, priority 2020, published 2023).

Assays:
Assay type in all cases: in vivo
[1] = system: Diabrotica Balteata (Corn Root Worm); test: Example B1: Diabrotica balteata (corn root worm), maize sprouts sprayed, L2 larvae; conditions: 96 h, application rate of 200 ppm, 4 days after infestation, in comparison to untreated samples, read-out: control in at least one of the two categories (mortality or growth inhibition)
Protocol: Example B1: Diabrotica Balteata (Corn Root Worm)
Maize sprouts placed onto an agar layer in 24-well microtiter plates were treated with aqueous test solutions prepared from 10′000 ppm DMSO stock solutions by spraying. After drying, the plates were infested with L2 larvae (6 to 10 per well). The samples were assessed for mortality and growth inhibition in comparison to untreated samples 4 days after infestation.
(§1) The following compounds gave an effect of at least 80% control in at least one of the two categories (mortality or growth inhibition) at an application rate of 200 ppm

[2] = system: Euschistus heros (Neotropical Brown Stink Bug); test: Example B2: Euschistus heros (neotropical brown stink bug), soybean leaves sprayed, N2 nymphs; conditions: 120 h, application rate of 200 ppm, 5 days after infestation, in comparison to untreated samples, read-out: control in at least one of the two categories (mortality or growth inhibition)
Protocol: Example B2: Euschistus heros (Neotropical Brown Stink Bug)
Soybean leaves on agar in 24-well microtiter plates were sprayed with aqueous test solutions prepared from 10′000 ppm DMSO stock solutions. After drying the leaves were infested with N2 nymphs. The samples were assessed for mortality and growth inhibition in comparison to untreated samples 5 days after infestation.
as §1

[3] = system: Plutella xylostella (Diamond Back Moth); test: Example B4: Plutella xylostella (diamond back moth), artificial diet, eggs; conditions: 192 h, application rate of 200 ppm, 8 days after infestation, in comparison to untreated samples, read-out: control in at least one of the two categories (mortality or growth inhibition)
Protocol: Example B4: Plutella xylostella (Diamond Back Moth)
24-well microtiter plates with artificial diet were treated with aqueous test solutions prepared from 10′000 ppm DMSO stock solutions by pipetting. After drying, Plutella eggs were pipetted through a plastic stencil onto a gel blotting paper and the plate was closed with it. The samples were assessed for mortality and growth inhibition in comparison to untreated samples 8 days after infestation.
as §1

[4] = system: Chilo suppressalis (Striped Rice Stemborer); test: Example B3: Chilo suppressalis (striped rice stemborer), artificial diet, L2 larvae; conditions: 144 h, application rate of 200 ppm, 6 days after infestation, in comparison to untreated samples, read-out: control in at least one of the three categories (mortality, anti-feedant effect, or growth inhibition)
Protocol: Example B3: Chilo suppressalis (Striped Rice Stemborer)
24-well microtiter plates with artificial diet were treated with aqueous test solutions prepared from 10′000 ppm DMSO stock solutions by pipetting. After drying, the plates were infested with L2 larvae (6-8 per well). The samples were assessed for mortality, anti-feeding effect, and growth inhibition in comparison to untreated samples 6 days after infestation. Control of Chilo suppressalis by a test sample is given when at least one of the categories mortality, anti-feedant effect, and growth inhibition is higher than the untreated sample.

[5] = system: Spodoptera littoralis (Egyptian Cotton Leaf Worm); test: Example B5: Spodoptera littoralis (Egyptian cotton leaf worm), cotton leaf discs sprayed, L1 larvae; conditions: foliar, 72 h, application rate of 200 ppm, 3 days after infestation, in comparison to untreated samples, read-out: control in at least one of the three categories (mortality, anti-feedant effect, or growth inhibition)
Protocol: Example B5: Spodoptera littoralis (Egyptian Cotton Leaf Worm)
Cotton leaf discs were placed onto agar in 24-well microtiter plates and sprayed with aqueous test solutions prepared from 10′000 ppm DMSO stock solutions. After drying the leaf discs were infested with five L1 larvae. The samples were assessed for mortality, anti-feeding effect, and growth inhibition in comparison to untreated samples 3 days after infestation. Control of Spodoptera littoralis by a test sample is given when at least one of the categories mortality, anti-feedant effect, and growth inhibition is higher than the untreated sample.

| SMILES | percent control (mortality or growth inhibition) at 200 ppm [1] [%] | percent control (mortality or growth inhibition) at 200 ppm [2] [%] | percent control (mortality or growth inhibition) at 200 ppm [3] [%] | percent control (mortality, anti-feedant effect or growth inhibition) at 200 ppm [4] [%] | percent control (mortality, anti-feedant effect or growth inhibition) at 200 ppm [5] [%] |
| --- | --- | --- | --- | --- | --- |
| CC(c1ncnn1-c1ncccn1)N(CC1CC1)c1nc(=O)[nH]c2c(Cl)cc(C(F)(F)F)cc12 (stereo not shown) [P1, 8-chloro-4-[cyclopropylmethyl-[1-(2-pyrimidin-2-yl-1,2,4-triazol-3-yl)ethyl]amino]-6-(trifluoromethyl)-1H-quinazolin-2-one] | ≥ 80 | ≥ 80 | ≥ 80 | – | – |
| CC(Nc1cc(=O)[nH]c2c(Cl)cc(C(F)(F)F)cc12)c1nccnc1-c1ncccn1 (stereo not shown) [P8, 8-chloro-4-[1-(3-pyrimidin-2-ylpyrazin-2-yl)ethylamino]-6-(trifluoromethyl)-1H-quinolin-2-one] | ≥ 80 | – | ≥ 80 | – | – |
| CC(c1ncnn1-c1ncccn1)N(CC1CC1)c1nc(=O)[nH]c2c(Br)cc(C(F)(F)F)cc12 (stereo not shown) [P3, 8-bromo-4-[cyclopropylmethyl-[1-(2-pyrimidin-2-yl-1,2,4-triazol-3-yl)ethyl]amino]-6-(trifluoromethyl)-1H-quinazolin-2-one] | ≥ 80 | ≥ 80 | ≥ 80 | – | – |
| CC(c1ncnn1-c1ncccn1)N(C)c1nc(=O)n(CC(F)(F)F)c2ccc(C(F)(F)F)cc12 (stereo not shown) [P12, 4-[methyl-[1-(2-pyrimidin-2-yl-1,2,4-triazol-3-yl)ethyl]amino]-1-(2,2,2-trifluoroethyl)-6-(trifluoromethyl) quinazolin-2-one] | – | ≥ 80 | – | – | – |
| CC(c1ncnn1-c1ncccn1)N(C)c1nc(=O)n(C)c2c(Cl)cc(C(F)(F)F)cc12 (stereo not shown) [P10, 8-chloro-1-methyl-4-[methyl-[1-(2-pyrimidin-2-yl-1,2,4-triazol-3-yl)ethyl]amino]-6-(trifluoromethyl) quinazolin-2-one] | – | ≥ 80 | – | – | – |
| CC(Nc1nc(=O)[nH]c2c(Br)cc(C(F)(F)F)cc12)c1ncnn1-c1ncccn1 (stereo not shown) [P2] | ≥ 80 | ≥ 80 | ≥ 80 | ≥ 80 | – |
| CC(Nc1nc(=O)[nH]c2c(Cl)cc(C(F)(F)F)cc12)c1ncnn1-c1ncccn1 (stereo not shown) [P4, 8-chloro-4-[1-(2-pyrimidin-2-yl-1,2,4-triazol-3-yl)ethylamino]-6-(trifluoromethyl)-1H-quinazolin-2-one] | – | ≥ 80 | ≥ 80 | ≥ 80 | ≥ 80 |
| CC(c1ncnn1-c1ncccn1)N(C)c1nc(=O)n(C)c2c(C(F)(F)F)cc(Br)cc12 (stereo not shown) [P6, 6-bromo-1-methyl-4-[methyl-[1-(2-pyrimidin-2-yl-1,2,4-triazol-3-yl)ethyl]amino]-8-E (trifluoromethyl)quinazolin-2-one] | ≥ 80 | ≥ 80 | – | – | – |
| CC(Nc1nc(=O)n(C)c2c(Cl)cc(C(F)(F)F)cc12)c1ncnn1-c1ncccn1 (stereo not shown) [P7, 8-chloro-1-methyl-4-[1-(2-pyrimidin-2-yl-1,2,4-triazol-3-yl)ethylamino]-6-(trifluoromethyl) quinazolin-2-one] | – | ≥ 80 | ≥ 80 | ≥ 80 | – |
| CC(Nc1nc(=O)n(C)c2c(C(F)(F)F)cc(Br)cc12)c1ncnn1-c1ncccn1 (stereo not shown) [P5, 6-bromo-1-methyl-4-[1-(2-pyrimidin-2-yl-1,2,4-triazol-3-yl)ethylamino]-8-(trifluoromethyl)quinazolin-2-one] | ≥ 80 | ≥ 80 | ≥ 80 | ≥ 80 | ≥ 80 |
